Source: patent US8691865B2 (AbbVie Inc., priority 2008, dated 2014)

These compounds were tested against human Cav2.2 (Homo sapiens, UniProt Q00975) (assay: Assessment of calcium channel activity using FLIPR (Ca2+ influx in IMR32 cells)). Conditions: not given.
Sequence of human Cav2.2 (Q00975 whole entry): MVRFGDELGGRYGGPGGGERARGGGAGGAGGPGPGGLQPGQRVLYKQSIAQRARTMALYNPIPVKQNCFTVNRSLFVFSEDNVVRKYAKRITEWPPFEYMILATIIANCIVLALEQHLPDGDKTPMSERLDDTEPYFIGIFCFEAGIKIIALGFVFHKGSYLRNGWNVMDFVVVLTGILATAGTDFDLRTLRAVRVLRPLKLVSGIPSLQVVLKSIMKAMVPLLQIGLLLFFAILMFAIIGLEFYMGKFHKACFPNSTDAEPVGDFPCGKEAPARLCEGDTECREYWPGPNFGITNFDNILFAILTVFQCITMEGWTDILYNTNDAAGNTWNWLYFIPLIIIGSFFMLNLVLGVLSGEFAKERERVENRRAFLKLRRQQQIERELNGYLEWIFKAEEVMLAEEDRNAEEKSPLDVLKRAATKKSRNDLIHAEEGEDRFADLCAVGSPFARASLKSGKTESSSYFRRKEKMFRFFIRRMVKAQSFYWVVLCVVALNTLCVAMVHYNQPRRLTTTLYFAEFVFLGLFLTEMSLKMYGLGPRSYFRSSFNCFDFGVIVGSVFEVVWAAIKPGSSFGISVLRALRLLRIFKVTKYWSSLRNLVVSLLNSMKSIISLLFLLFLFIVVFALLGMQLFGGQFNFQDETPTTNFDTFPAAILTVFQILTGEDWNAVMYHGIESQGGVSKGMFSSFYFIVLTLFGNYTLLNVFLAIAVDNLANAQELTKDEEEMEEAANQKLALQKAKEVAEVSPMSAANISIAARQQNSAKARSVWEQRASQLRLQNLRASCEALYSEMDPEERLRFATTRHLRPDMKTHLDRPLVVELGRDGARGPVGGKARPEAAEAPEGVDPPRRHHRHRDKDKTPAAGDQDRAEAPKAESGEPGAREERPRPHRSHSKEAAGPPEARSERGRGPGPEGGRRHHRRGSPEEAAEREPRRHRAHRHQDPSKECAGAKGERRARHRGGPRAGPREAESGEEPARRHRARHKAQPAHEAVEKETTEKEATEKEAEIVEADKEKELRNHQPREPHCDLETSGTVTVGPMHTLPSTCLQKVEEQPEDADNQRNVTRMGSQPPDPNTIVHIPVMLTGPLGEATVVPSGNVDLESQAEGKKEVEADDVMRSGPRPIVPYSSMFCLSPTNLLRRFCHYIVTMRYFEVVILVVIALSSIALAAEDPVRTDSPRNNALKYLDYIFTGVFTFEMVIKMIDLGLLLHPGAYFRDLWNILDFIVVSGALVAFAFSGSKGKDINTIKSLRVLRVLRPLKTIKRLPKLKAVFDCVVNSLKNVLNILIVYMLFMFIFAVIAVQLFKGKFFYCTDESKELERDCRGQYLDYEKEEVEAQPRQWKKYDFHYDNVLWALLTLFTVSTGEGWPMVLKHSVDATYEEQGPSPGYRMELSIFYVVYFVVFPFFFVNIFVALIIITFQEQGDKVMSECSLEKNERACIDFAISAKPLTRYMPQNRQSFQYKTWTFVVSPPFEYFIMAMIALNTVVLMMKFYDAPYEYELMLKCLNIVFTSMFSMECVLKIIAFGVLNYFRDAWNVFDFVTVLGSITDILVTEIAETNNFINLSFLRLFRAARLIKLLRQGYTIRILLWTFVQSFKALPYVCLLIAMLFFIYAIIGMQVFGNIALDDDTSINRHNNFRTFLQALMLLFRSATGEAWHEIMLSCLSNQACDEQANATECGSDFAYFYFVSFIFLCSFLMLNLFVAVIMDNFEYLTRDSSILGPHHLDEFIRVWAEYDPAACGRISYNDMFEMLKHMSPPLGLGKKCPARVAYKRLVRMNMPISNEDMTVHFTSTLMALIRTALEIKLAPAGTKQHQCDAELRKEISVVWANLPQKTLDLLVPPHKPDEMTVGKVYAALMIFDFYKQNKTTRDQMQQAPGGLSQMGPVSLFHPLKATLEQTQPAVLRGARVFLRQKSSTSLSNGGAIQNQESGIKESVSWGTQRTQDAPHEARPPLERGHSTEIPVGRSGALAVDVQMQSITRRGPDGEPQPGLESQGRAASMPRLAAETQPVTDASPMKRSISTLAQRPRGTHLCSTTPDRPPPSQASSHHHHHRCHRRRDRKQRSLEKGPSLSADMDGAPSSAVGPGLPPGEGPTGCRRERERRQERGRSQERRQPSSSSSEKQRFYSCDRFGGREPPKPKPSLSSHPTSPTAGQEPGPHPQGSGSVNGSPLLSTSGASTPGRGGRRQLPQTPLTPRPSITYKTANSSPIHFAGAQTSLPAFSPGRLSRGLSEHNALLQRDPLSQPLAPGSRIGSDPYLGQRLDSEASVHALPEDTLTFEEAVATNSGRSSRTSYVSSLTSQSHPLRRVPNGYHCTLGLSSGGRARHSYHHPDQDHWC
Sequence of human Cav2.2 (P54289 25-956 partner limits assumed): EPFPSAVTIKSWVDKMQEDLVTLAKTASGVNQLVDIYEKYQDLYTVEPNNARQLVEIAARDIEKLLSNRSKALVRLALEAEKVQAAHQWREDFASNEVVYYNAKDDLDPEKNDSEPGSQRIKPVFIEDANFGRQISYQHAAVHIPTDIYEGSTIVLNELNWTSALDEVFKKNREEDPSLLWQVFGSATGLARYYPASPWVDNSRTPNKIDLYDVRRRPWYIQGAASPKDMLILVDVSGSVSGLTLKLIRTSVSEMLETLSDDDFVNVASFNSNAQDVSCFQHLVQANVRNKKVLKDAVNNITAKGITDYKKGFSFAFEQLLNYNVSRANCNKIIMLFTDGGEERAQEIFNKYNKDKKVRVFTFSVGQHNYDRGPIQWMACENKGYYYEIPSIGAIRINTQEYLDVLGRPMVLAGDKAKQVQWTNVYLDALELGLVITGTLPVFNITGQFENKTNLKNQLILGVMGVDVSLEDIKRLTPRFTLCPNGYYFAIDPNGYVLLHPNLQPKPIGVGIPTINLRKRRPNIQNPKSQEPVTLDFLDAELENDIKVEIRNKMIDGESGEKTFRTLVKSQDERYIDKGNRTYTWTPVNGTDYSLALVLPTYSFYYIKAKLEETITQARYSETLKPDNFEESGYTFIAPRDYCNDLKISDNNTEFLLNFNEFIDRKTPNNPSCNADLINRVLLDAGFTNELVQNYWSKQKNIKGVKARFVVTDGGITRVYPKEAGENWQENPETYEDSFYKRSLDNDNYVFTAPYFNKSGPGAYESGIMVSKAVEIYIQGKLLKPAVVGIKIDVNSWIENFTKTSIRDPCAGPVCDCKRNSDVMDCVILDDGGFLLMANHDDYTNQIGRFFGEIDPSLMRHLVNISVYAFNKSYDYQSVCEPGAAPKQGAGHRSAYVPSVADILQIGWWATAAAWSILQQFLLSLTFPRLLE
Sequence of human Cav2.2 (P54289 957-1103 partner limits assumed): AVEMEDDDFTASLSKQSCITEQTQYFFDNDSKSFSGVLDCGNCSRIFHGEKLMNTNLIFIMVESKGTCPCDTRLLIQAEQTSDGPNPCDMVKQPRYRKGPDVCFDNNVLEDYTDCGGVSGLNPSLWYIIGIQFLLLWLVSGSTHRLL
Sequence of human Cav2.2 (P54284 whole entry partner): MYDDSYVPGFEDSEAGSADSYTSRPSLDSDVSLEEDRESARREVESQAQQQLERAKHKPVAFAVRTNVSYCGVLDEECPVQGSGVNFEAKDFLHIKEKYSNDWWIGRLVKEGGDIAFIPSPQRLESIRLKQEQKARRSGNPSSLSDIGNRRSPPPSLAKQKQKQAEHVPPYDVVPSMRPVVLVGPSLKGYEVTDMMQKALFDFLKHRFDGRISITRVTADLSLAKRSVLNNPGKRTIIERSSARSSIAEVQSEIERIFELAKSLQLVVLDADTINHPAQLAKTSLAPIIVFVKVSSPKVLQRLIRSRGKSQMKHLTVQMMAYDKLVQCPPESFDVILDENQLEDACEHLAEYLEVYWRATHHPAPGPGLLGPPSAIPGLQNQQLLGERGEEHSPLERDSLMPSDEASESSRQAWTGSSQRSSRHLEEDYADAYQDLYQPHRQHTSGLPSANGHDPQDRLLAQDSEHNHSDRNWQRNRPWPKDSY
Format: cell-based
Procedure, shortened: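 IC50 values derive from nonlinear sigmoidal fitting of percent inhibition, relative to inhibitor-free activity, of Ca2+ influx read by FLIPR. Cells were IMR32 human neuroblastoma, plated at 1−1.2×10^5 per well and grown 48 h at 37 °C.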
Work on CCCC[C@H](NC)C(=O)N[C@H]1CC[C@@H]2CN(c3cccc(C(F)(F)F)n3)C[C@@H]21 [Example 589, N^2-methyl-N-{(3aR,4S,6aS)-2-[6-(trifluoromethyl)pyridin-2-yl]octahydrocyclopenta[c]pyrrol-4-yl}-L-norleucinamide] yielded an IC50 of 0.32 µM.
FC(F)(F)c1cccc(N2C[C@H]3CC[C@H](NCc4nc(-c5ccccc5)c[nH]4)[C@H]3C2)n1 [Example 746, (3aR,4S,6aS)-N-[(4-phenyl-1H-imidazol-2-yl)methyl]-2-[6-(trifluoromethyl)pyridin-2-yl]octahydrocyclopenta[c]pyrrol-4-amine] showed an IC50 of 1.71 µM.
With Cc1cccc2c(CN[C@H]3CC[C@@H]4CN(c5cccc(C(F)(F)F)n5)C[C@@H]43)c[nH]c12 [Example 671, (3aR,4S,6aS)-N-[(7-methyl-1H-indol-3-yl)methyl]-2-[6-(trifluoromethyl)pyridin-2-yl]octahydrocyclopenta[c]pyrrol-4-amine] the IC50 was 1.53 µM.
Work on CN[C@@H](CC(C)C)C(=O)N[C@H]1CC[C@@H]2CN(c3cccc(C(F)(F)F)c3F)C[C@@H]21 [Example 635, N-{(3aR,4S,6aS)-2-[2-fluoro-3-(trifluoromethyl)phenyl]octahydrocyclopenta[c]pyrrol-4-yl}-N^2-methyl-L-leucinamide] yielded an IC50 of 0.92 µM.
Compound FC(F)(F)c1cccc(N2C[C@H]3CC[C@H](NCc4c[nH]c5ccc(Cl)cc45)[C@H]3C2)n1 [Example 680, (3aR,4S,6aS)-N-[(5-chloro-1H-indol-3-yl)methyl]-2-[6-(trifluoromethyl)pyridin-2-yl]octahydrocyclopenta[c]pyrrol-4-amine] has an IC50 of 1.66 µM.
Work on O=C(N[C@H]1CC[C@@H]2CN(c3ccccc3F)C[C@@H]21)[C@@H]1C[C@@H](F)CN1 [Example 661, (4R)-4-fluoro-N-[(3aR,4S,6aS)-2-(2-fluorophenyl)octahydrocyclopenta[c]pyrrol-4-yl]-L-prolinamide] yielded an IC50 of 14.7 µM.
With CN[C@@H](CC(C)C)C(=O)N[C@H]1CC[C@@H]2CN(c3cccc(SC(F)(F)F)c3)C[C@@H]21 [Example 712, N^2-methyl-N-[(3aR,4S,6aS)-2-{3-[(trifluoromethyl)thio]phenyl]octahydrocyclopenta[c]pyrrol-4-yl}-L-leucinamide] the IC50 was 1.01 µM.
FC(F)(F)c1cccc(N2C[C@H]3CC[C@H](NCc4c[nH]c(-c5ccccc5)n4)[C@H]3C2)n1 [Example 688, (3aR,4S,6aS)-N-[(2-phenyl-1H-imidazol-4-yl)methyl]-2-[6-(trifluoromethyl)pyridin-2-yl]octahydrocyclopenta[c]pyrrol-4-amine] gave an IC50 of 1.03 µM.
In the case of CC(C)(C)[C@H](N)C(=O)N[C@@H]1CC[C@H]2CN(Cc3ccccc3)C[C@H]21 [Example 356, N^1-[(3aS,4R,6aR)-2-benzyloctahydrocyclopenta[c]pyrrol-4-yl]-3-methyl-L-valinamide], the IC50 is reported as over 30 µM.
In the case of CN[C@@H](CC(C)C)C(=O)N[C@H]1CC[C@@H]2CN(c3cccc(C)c3)C[C@@H]21 [Example 636, N^2-methyl-N-[(3aR,4S,6aS)-2-(3-methylphenyl)octahydrocyclopenta[c]pyrrol-4-yl]-L-leucinamide], the IC50 is reported as 3.73 µM.
For FC(F)(F)c1cccc(N2C[C@H]3CC[C@H](NCc4c[nH]cn4)[C@H]3C2)n1 [Example 677, (3aR,4S,6aS)-N-(1H-imidazol-4-ylmethyl)-2-[6-(trifluoromethyl)pyridin-2-yl]octahydrocyclopenta[c]pyrrol-4-amine], the IC50 was 3.35 µM.
Work on FC(F)(F)c1cccc(N2C[C@H]3CC[C@H](NCc4coc(-c5ccc(Cl)cc5)n4)[C@H]3C2)n1 [Example 741, (3aR,4S,6aS)-N-{[2-(4-chlorophenyl)-1,3-oxazol-4-yl]methyl}-2-[6-(trifluoromethyl)pyridin-2-yl]octahydrocyclopenta[c]pyrrol-4-amine] yielded an IC50 of 1.16 µM.
Cc1oncc1C(=O)N[C@H]1CC[C@@H]2CN(c3cccc(C(F)(F)F)n3)C[C@@H]21 [Example 581, 5-methyl-N-{(3aR,4S,6aS)-2-[6-(trifluoromethyl)pyridin-2-yl]octahydrocyclopenta[c]pyrrol-4-yl}-1,2-oxazole-4-carboxamide] gave an IC50 of 2.99 µM.
CC(C)(C)C[C@H](NC(=O)OC(C)(C)C)C(=O)N[C@H]1CC[C@@H]2CN(C(=O)[C@H](CC(C)(C)C)NC(=O)OC(C)(C)C)C[C@@H]21 [Example 463, tert-butyl(S)-1-((3aR,4S,6aS)-4-((S)-2-(tert-butoxycarbonylamino)-4,4-dimethylpentanamido)hexahydrocyclopenta[c]pyrrol-2(1H)-yl)-4,4-dimethyl-1-oxopentan-2-ylcarbamate] was tested, and the IC50 was 2.03 µM.
Compound CN[C@@H](CC1CC1)C(=O)N[C@H]1CC[C@@H]2CN(c3ccc(OC(F)(F)F)cc3)C[C@@H]21 [Example 775, 3-cyclopropyl-N^2-methyl-N-{(3aR,4S,6aS)-2-[4-(trifluoromethoxy)phenyl]octahydrocyclopenta[c]pyrrol-4-yl}-L-alaninamide] has an IC50 of 2.77 µM.
In the case of O=S(=O)(N[C@H]1CC[C@@H]2CN(c3cccc(C(F)(F)F)n3)C[C@@H]21)c1cccc(Cl)c1 [Example 704, 3-chloro-N-{(3aR,4S,6aS)-2-[6-(trifluoromethyl)pyridin-2-yl]octahydrocyclopenta[c]pyrrol-4-yl}benzenesulfonamide], the IC50 is reported as 4.63 µM.
CN[C@@H](CC(C)C)C(=O)N[C@H]1CC[C@H]2CN(Cc3ccccc3)C[C@H]21 [Example 360, N^1-[(3aS,4S,6aR)-2-benzyloctahydrocyclopenta[c]pyrrol-4-yl]-N^2-methyl-L-leucinamide] gave an IC50 of over 30 µM.
For CCCCc1nc(CN[C@H]2CC[C@@H]3CN(c4cccc(C(F)(F)F)n4)C[C@@H]32)c[nH]1 [Example 674, (3aR,4S,6aS)-N-[(2-butyl-1H-imidazol-4-yl)methyl]-2-[6-(trifluoromethyl)pyridin-2-yl]octahydrocyclopenta[c]pyrrol-4-amine], the IC50 was 0.53 µM.
For CC(C)(C)C[C@@H](C(=O)N[C@H]1CC[C@@H]2CN(S(=O)(=O)c3ccc(C(F)(F)F)cc3)C[C@@H]21)N(C1CC1)C1CC1 [Example 500, N^2,N^2-dicyclopropyl-4-methyl-N^1-((3aR,4S,6aS)-2-{[4-(trifluoromethyl)phenyl]sulfonyl}octahydrocyclopenta[c]pyrrol-4-yl)-L-leucinamide], the IC50 was 1.69 µM.
For CCC[C@H](NC)C(=O)N[C@@H]1CC[C@H]2CN(Cc3ccc(C(F)(F)F)cc3)C[C@H]21 [Example 371, N^2-methyl-N^1-{(3aS,4R,6aR)-2-[4-(trifluoromethyl)benzyl]octahydrocyclopenta[c]pyrrol-4-yl}-L-norvalinamide], the IC50 was 8.88 µM.
CCC[C@H](NC(C)C)C(=O)N[C@H]1CC[C@@H]2CN(Cc3ccccc3)C[C@@H]21 [Example 494, N^1-[(3aR,4S,6aS)-2-benzyloctahydrocyclopenta[c]pyrrol-4-yl]-N^2-isopropyl-L-norvalinamide] was tested, and the IC50 was over 30 µM.
CC(C)C[C@H](NCC(C)(C)C)C(=O)N[C@H]1CC[C@@H]2CN(S(=O)(=O)c3ccc(F)cc3)C[C@@H]21 [Example 261, N^1-{(3aR,4S,6aS)-2-[(4-fluorophenyl)sulfonyl]octahydrocyclopenta[c]pyrrol-4-yl}-N^2-neopentyl-L-leucinamide] showed an IC50 of 1.25 µM.
Compound CC(C)(C)C(C(=O)N[C@H]1CC[C@H]2CN(Cc3cccc(C(F)(F)F)c3)C[C@H]21)c1ccccc1 (relative stereo) [Example 123, 3,3-dimethyl-2-phenyl-N-{(3aS*,4S*,6aR*)-2-[3-(trifluoromethyl)benzyl]octahydrocyclopenta[c]pyrrol-4-yl}butanamide] has an IC50 of 0.57 µM.
O=C(N[C@H]1CC[C@H]2CN(Cc3ccccc3)C[C@H]21)C(C1CCCCC1)C1CCCCC1 (relative stereo) [Example 11, N-[(3aS*,4S*,6aR*)-2-benzyloctahydrocyclopenta[c]pyrrol-4-yl]-2,2-dicyclohexylacetamide] showed an IC50 of 4.67 µM.

Same assay, conditions: read-out: IC50 (μM) or percent inhibition (* indicates 3 minute incubation, otherwise 60 minute); IC50; 60 minute pre-incubation with compound; IMR32 cells, 80 mM KCl depolarization
CCC[C@H](NC)C(=O)N[C@H]1CC[C@@H]2CN(S(=O)(=O)Cc3ccc(C(F)(F)F)cc3)C[C@@H]21 [Example 549, N^2-methyl-N^1-((3aR,4S,6aS)-2-{[4-(trifluoromethyl)benzyl]sulfonyl}octahydrocyclopenta[c]pyrrol-4-yl)-L-norvalinamide] gave an IC50 of 2.73 µM.
O=S(=O)(c1cccc(C(F)(F)F)c1)N(C1CC1)[C@H]1CC[C@H]2CN(Cc3ccccc3)C[C@H]21 (relative stereo) [Example 199, N-[(3aS*,4S*,6aR*)-2-benzyloctahydrocyclopenta[c]pyrrol-4-yl]-N-cyclopropyl-3-(trifluoromethyl)benzenesulfonamide] gave an IC50 of 2.21 µM.
“N-methyl-N-((3aR,4S,6aS)-2-{[3-(trifluoromethyl)phenyl]sulfonyl}octahydrocyclopenta[c]pyrrol-4-yl)-L-phenylalaninamide [Example 386]” gave an IC50 of 1.62 µM.
COc1ccccc1CN1C[C@H]2CC[C@H](NC(=O)C(c3ccccc3)C(C)C)[C@H]2C1 (stereo partly drawn) [Example 94, N-[(3aR,4S,6aS)-2-(2-methoxybenzyl)octahydrocyclopenta[c]pyrrol-4-yl]-3-methyl-2-phenylbutanamide] showed an IC50 of 2.33 µM.
Work on CN[C@@H](CC(C)C)C(=O)N[C@@H]1CC[C@H]2CN(S(=O)(=O)c3ccccc3)C[C@H]21 [Example 448, N^2-methyl-N^1-[(3aS,4R,6aR)-2-(phenylsulfonyl)octahydrocyclopenta[c]pyrrol-4-yl]-L-leucinamide] yielded an IC50 of 12.4 µM.
Work on O=C(CC(c1ccc(F)cc1)c1ccc(F)cc1)N[C@@H]1CC[C@H]2CN(Cc3cccc(C(F)(F)F)c3)C[C@H]21 (relative stereo) [Example 143, 3,3-bis(4-fluorophenyl)-N-{(3aS*,4R*,6aR*)-2-[3-(trifluoromethyl)benzyl]octahydrocyclopenta[c]pyrrol-4-yl}propanamide] yielded an IC50 of 0.61 µM.
In the case of CC(C)C[C@@H](N)C(=O)N[C@@H]1CC[C@@H]2CN(Cc3cccc(C(F)(F)F)c3)C[C@@H]21 (stereo in doubt) [Example 159, N^1-{(3aR*,4R*,6aS*)-2-[3-(trifluoromethyl)benzyl]octahydrocyclopenta[c]pyrrol-4-yl}-D-leucinamide], the IC50 is reported as 5.55 µM.
